Reference: PMC7615656 (European journal of pharmacology, 2010)

How the values were obtained:
[1] = system: GABAA receptors containing the γ2F77I mutation; assay: Modulation of GABA EC3 in receptors containing the γ2F77I mutation; type: cell-based, rat; settings: for stimulation of GABA-induced chloride flux: 10 μM, some γ2F77I receptors
[2] = target: recombinant rat α1β3γ2 receptors (Rattus norvegicus, UniProt P18508+P62813); assay: Two-electrode voltage clamp of GABA-induced chloride currents in Xenopus oocytes; type: cell-based; settings: for efficacy (% GABA EC3): α1β3γ2, ns = not significant
[3] = target: recombinant rat α3β3γ2F77I receptors (Rattus norvegicus, UniProt P18508+P20236, F115I); assay: as above; type: cell-based; settings: α3β3γ2F77I, ns = not significant
[4] = target: recombinant rat α2β3γ2F77I receptors (Rattus norvegicus, UniProt P18508+P23576, F115I); assay: as above; type: cell-based; settings: α2β3γ2F77I, ns = not significant
[5] = target: recombinant rat α2β3γ2 receptors (Rattus norvegicus, UniProt P18508+P23576); assay: as above; type: cell-based; settings: for efficacy (% GABA EC3): α2β3γ2, ns = not significant
[6] = target: recombinant rat α3β3γ2 receptors (Rattus norvegicus, UniProt P18508+P20236); assay: as above; type: cell-based; settings: for efficacy (% GABA EC3): α3β3γ2, ns = not significant
[7] = target: recombinant rat α1β3γ2F77I receptors (Rattus norvegicus, UniProt P18508+P62813, F115I); assay: as above; type: cell-based; settings: α1β3γ2F77I, ns = not significant
[8] = target: recombinant rat α5β3γ2 receptors (Rattus norvegicus, UniProt P18508+P19969); assay: as above; type: cell-based; settings: for efficacy (% GABA EC3): α5β3γ2, ns = not significant
[9] = target: recombinant rat α4β3γ2 receptors (Rattus norvegicus, UniProt P18508+P28471); assay: as above; type: cell-based; settings: for efficacy (% GABA EC3): ns = not significant
[10] = target: recombinant rat α5β3γ2F77I receptors (Rattus norvegicus, UniProt P18508+P19969, F115I); assay: as above; type: cell-based; settings: for efficacy (% GABA EC3): α5β3γ2F77I, ns = not significant
[11] = system: GABAA receptors of mice containing the point mutation γ2F77I; settings: receptor binding; ref Ogris et al., 2004; cited from earlier work
[12] = target: recombinant rat α6β3γ2 receptors (Rattus norvegicus, UniProt P18508+P30191); assay: Two-electrode voltage clamp of GABA-induced chloride currents in Xenopus oocytes; type: cell-based; settings: for efficacy (% GABA EC3): ns = not significant
[13] = target: recombinant rat α4β3γ2F77I receptors (Rattus norvegicus, UniProt P18508+P28471, F115I); assay: as above; type: cell-based; settings: ns = not significant
[14] = target: recombinant rat α6β3γ2F77I receptors (Rattus norvegicus, UniProt P18508+P30191, F115I); assay: as above; type: cell-based; settings: ns = not significant

Sequence of recombinant rat α5β3γ2 receptors (P19969 32-464 limits assumed): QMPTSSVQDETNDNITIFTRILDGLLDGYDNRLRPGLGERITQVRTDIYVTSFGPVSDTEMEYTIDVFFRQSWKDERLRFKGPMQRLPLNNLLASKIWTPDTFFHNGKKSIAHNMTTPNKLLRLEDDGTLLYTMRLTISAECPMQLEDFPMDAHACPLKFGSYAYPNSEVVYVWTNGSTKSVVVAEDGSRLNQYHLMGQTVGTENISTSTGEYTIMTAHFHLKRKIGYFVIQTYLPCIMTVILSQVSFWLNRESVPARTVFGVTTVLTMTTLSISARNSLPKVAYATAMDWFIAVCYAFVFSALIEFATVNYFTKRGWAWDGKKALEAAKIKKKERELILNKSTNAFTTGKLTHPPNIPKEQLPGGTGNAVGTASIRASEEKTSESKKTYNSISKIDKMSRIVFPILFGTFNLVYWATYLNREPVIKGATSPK
Sequence of recombinant rat α5β3γ2 receptors (P63079 26-473 partner): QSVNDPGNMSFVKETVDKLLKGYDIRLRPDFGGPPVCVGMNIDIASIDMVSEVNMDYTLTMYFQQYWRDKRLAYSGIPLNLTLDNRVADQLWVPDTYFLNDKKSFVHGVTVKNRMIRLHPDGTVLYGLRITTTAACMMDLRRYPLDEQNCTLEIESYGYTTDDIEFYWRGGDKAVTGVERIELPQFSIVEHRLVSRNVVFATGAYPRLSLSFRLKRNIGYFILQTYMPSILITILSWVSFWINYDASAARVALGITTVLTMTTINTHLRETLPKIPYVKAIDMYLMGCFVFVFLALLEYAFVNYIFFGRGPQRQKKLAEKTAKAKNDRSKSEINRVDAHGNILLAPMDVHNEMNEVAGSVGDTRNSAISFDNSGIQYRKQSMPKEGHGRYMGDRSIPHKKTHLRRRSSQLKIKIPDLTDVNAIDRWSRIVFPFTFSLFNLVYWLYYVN
Sequence of recombinant rat α5β3γ2 receptors (P18508 39-466): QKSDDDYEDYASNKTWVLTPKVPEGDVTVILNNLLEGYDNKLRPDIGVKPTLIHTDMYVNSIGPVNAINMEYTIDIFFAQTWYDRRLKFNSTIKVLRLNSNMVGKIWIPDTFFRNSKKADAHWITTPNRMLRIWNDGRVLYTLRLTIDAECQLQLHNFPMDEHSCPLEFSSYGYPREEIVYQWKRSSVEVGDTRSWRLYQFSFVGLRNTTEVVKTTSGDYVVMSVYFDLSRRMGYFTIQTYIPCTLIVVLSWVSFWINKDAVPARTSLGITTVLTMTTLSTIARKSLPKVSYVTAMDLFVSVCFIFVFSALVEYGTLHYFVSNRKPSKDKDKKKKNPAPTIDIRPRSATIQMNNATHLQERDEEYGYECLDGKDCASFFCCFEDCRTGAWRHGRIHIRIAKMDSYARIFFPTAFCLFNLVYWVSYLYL
Sequence of recombinant rat α5β3γ2F77I receptors (P19969 32-464 limits assumed): as the sequence (P19969 32-464 limits assumed) above
Sequence of recombinant rat α5β3γ2F77I receptors (P63079 26-473 partner): as the sequence (P63079 26-473 partner) above
Sequence of recombinant rat α5β3γ2F77I receptors (P18508 39-466 F115I): as the sequence (P18508 39-466) above, with F77I counted along it
Sequence of recombinant rat α2β3γ2 receptors (P23576 29-451): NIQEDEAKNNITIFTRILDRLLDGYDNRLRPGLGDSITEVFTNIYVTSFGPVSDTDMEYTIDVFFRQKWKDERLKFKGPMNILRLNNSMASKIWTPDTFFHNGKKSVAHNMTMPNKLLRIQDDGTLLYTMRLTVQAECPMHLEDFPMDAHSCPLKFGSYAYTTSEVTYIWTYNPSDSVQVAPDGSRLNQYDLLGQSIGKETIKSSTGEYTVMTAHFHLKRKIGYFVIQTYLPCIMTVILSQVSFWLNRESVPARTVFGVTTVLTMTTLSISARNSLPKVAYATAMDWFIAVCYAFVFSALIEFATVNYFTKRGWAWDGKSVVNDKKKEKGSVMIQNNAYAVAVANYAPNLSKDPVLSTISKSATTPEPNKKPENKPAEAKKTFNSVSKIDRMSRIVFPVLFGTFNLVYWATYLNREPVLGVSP
Sequence of recombinant rat α2β3γ2 receptors (P63079 26-473 partner): as the sequence (P63079 26-473 partner) above
Sequence of recombinant rat α2β3γ2 receptors (P18508 39-466): as the sequence (P18508 39-466) above

CN1CCN(C(=O)OC2c3nccnc3C(=O)N2c2ccc(Cl)cn2)CC1 (stereo not drawn) [Zopiclone, 4-methyl-1-piperazinecarboxylic acid-6-(5-chloro-2-pyridinyl)-6,7-dihydro-7-oxo-5H-pyrrolo[3,4-b]pyrazin-5-yl ester]
stimulation of GABA-induced chloride flux [1]: 20–40%
EC50 [2]: 163 ± 19 nM
efficacy (% GABA EC3) ([2]; 100 nM): 211 ± 17 % GABA EC3
efficacy (% GABA EC3) ([2]; 1 μM): 347 ± 35 % GABA EC3
efficacy (% GABA EC3) ([2]; 10 μM): 383 ± 36 % GABA EC3
efficacy (% GABA EC3) ([3]; 100 nM): ns
efficacy (% GABA EC3) ([3]; 1 μM): 107 ± 1 % GABA EC3
efficacy (% GABA EC3) ([3]; 10 μM): 119 ± 4 % GABA EC3
efficacy (% GABA EC3) ([4]; 100 nM): ns
efficacy (% GABA EC3) ([4]; 1 μM): ns
efficacy (% GABA EC3) ([4]; 10 μM): 121 ± 2 % GABA EC3
EC50 [5]: 400 ± 64 nM
efficacy (% GABA EC3) ([5]; 100 nM): 157 ± 9 % GABA EC3
efficacy (% GABA EC3) ([5]; 1 μM): 289 ± 16 % GABA EC3
efficacy (% GABA EC3) ([5]; 10 μM): 356 ± 22 % GABA EC3
EC50 [6]: > 793 nM
efficacy (% GABA EC3) ([6]; 100 nM): 161 ± 10 % GABA EC3
efficacy (% GABA EC3) ([6]; 1 μM): 377 ± 24 % GABA EC3
efficacy (% GABA EC3) ([6]; 10 μM): 559 ± 30 % GABA EC3
efficacy (% GABA EC3) ([7]; 100 nM): ns
efficacy (% GABA EC3) ([7]; 1 μM): ns
efficacy (% GABA EC3) ([7]; 10 μM): 125 ± 3 % GABA EC3
EC50 [8]: 176 ± 1 nM
efficacy (% GABA EC3) ([8]; 100 nM): 191 ± 8 % GABA EC3
efficacy (% GABA EC3) ([8]; 1 μM): 313 ± 18 % GABA EC3
efficacy (% GABA EC3) ([8]; 10 μM): 345 ± 22 % GABA EC3
efficacy (% GABA EC3) ([9]; 1 μM, α4β3γ2): ns
efficacy (% GABA EC3) ([9]; 10 μM, α4β3γ2): ns
efficacy (% GABA EC3) ([9]; 10 μM, α4β3γ2, listed as zopiclone): did not significantly stimulate
efficacy (% GABA EC3) ([10]; 100 nM): ns
efficacy (% GABA EC3) ([10]; 1 μM): 114 ± 2 % GABA EC3
efficacy (% GABA EC3) ([10]; 10 μM): 144 ± 1 % GABA EC3
shift in affinity caused by γ2F77I [11]: ~100 fold
efficacy (% GABA EC3) ([12]; 1 μM, α6β3γ2): ns
efficacy (% GABA EC3) ([12]; 10 μM, α6β3γ2): ns
efficacy (% GABA EC3) ([12]; 10 μM, α6β3γ2, listed as zopiclone): did not significantly stimulate

CC(C)(C)OC(=O)c1ncn2c1[C@@H]1CCCN1C(=O)c1c(Br)cccc1-2 [Bretazenil, t-butyl(s)-8-bromo-11,12,13,13a-tetrahydro-9-oxo-9H-imidazo[1,5-a] pyrrolo[2,1-c][1,4]benzodiazepine-1-carboxylate]
activity in the mutated receptors ([1]; up to 100 nM): inactive
EC50 [2]: 4 ± 1 nM
efficacy (% GABA EC3) ([2]; 10 nM): 126 ± 5 % GABA EC3
efficacy (% GABA EC3) ([2]; 100 nM): 134 ± 7 % GABA EC3
efficacy (% GABA EC3) ([2]; 1 μM): 136 ± 9 % GABA EC3
efficacy (% GABA EC3) ([2]; 10 μM): 138 ± 10 % GABA EC3
efficacy (% GABA EC3) ([3]; 10 nM): ns
efficacy (% GABA EC3) ([3]; 100 nM): 117 ± 3 % GABA EC3
efficacy (% GABA EC3) ([3]; 1 μM): 143 ± 7 % GABA EC3
efficacy (% GABA EC3) ([3]; 10 μM): 238 ± 15 % GABA EC3
efficacy (% GABA EC3) ([4]; 10 nM): ns
efficacy (% GABA EC3) ([4]; 1 μM): 125 ± 3 % GABA EC3
efficacy (% GABA EC3) ([4]; 10 μM): 179 ± 8 % GABA EC3
EC50 [5]: 7 ± 1 nM
efficacy (% GABA EC3) ([5]; 10 nM): 119 ± 4 % GABA EC3
efficacy (% GABA EC3) ([5]; 100 nM): 128 ± 5 % GABA EC3
efficacy (% GABA EC3) ([5]; 1 μM): 130 ± 7 % GABA EC3
efficacy (% GABA EC3) ([5]; 10 μM): 129 ± 10 % GABA EC3
EC50 [6]: 15 ± 2 nM
efficacy (% GABA EC3) ([6]; 10 nM): 154 ± 6 % GABA EC3
efficacy (% GABA EC3) ([6]; 100 nM): 213 ± 11 % GABA EC3
efficacy (% GABA EC3) ([6]; 1 μM): 224 ± 14 % GABA EC3
efficacy (% GABA EC3) ([6]; 10 μM): 234 ± 17 % GABA EC3
efficacy (% GABA EC3) ([7]; 10 nM): ns
efficacy (% GABA EC3) ([7]; 100 nM): 120 ± 6 % GABA EC3
efficacy (% GABA EC3) ([7]; 1 μM): 149 ± 12 % GABA EC3
efficacy (% GABA EC3) ([7]; 10 μM): 164 ± 21 % GABA EC3
efficacy (% GABA EC3) ([13]; 10 nM): ns
efficacy (% GABA EC3) ([13]; 100 nM): ns
efficacy (% GABA EC3) ([13]; 1 μM): ns
efficacy (% GABA EC3) ([13]; 10 μM): ns
efficacy (% GABA EC3) ([14]; 10 nM): ns
efficacy (% GABA EC3) ([14]; 100 nM): ns
efficacy (% GABA EC3) ([14]; 1 μM): ns
efficacy (% GABA EC3) ([14]; 10 μM): ns
EC50 [8]: 9 ± 2 nM
efficacy (% GABA EC3) ([8]; 10 nM): 168 ± 13 % GABA EC3
efficacy (% GABA EC3) ([8]; 100 nM): 205 ± 17 % GABA EC3
efficacy (% GABA EC3) ([8]; 1 μM): 216 ± 22 % GABA EC3
efficacy (% GABA EC3) ([8]; 10 μM): 228 ± 23 % GABA EC3
EC50 [9]: > 354 nM
efficacy (% GABA EC3) ([9]; 10 nM, α4β3γ2): ns
efficacy (% GABA EC3) ([9]; 100 nM, α4β3γ2): 156 ± 11 % GABA EC3
efficacy (% GABA EC3) ([9]; 1 μM, α4β3γ2): 332 ± 23 % GABA EC3
efficacy (% GABA EC3) ([9]; 10 μM, α4β3γ2): 395 ± 8 % GABA EC3
EC50 [10]: > 748 nM
efficacy (% GABA EC3) ([10]; 10 nM): ns
efficacy (% GABA EC3) ([10]; 100 nM): 124 ± 3 % GABA EC3
efficacy (% GABA EC3) ([10]; 1 μM): 193 ± 8 % GABA EC3
efficacy (% GABA EC3) ([10]; 10 μM): 249 ± 11 % GABA EC3
EC50 [12]: > 322 nM
efficacy (% GABA EC3) ([12]; 10 nM, α6β3γ2): ns
efficacy (% GABA EC3) ([12]; 100 nM, α6β3γ2): ns
efficacy (% GABA EC3) ([12]; 1 μM, α6β3γ2): 202 ± 12 % GABA EC3
efficacy (% GABA EC3) ([12]; 10 μM, α6β3γ2): 231 ± 13 % GABA EC3

Cc1ccc(-c2nc3ccc(C)cn3c2CC(=O)N(C)C)cc1 [Zolpidem, N,N,6-trimethyl-2-(4-methylphenyl)imidazo[1,2-a]-pyridine-3-acetamide]
stimulation of GABA-induced chloride flux [1]: 20–40%
efficacy (% GABA EC3) ([3]; 100 nM): ns
efficacy (% GABA EC3) ([3]; 1 μM): ns
efficacy (% GABA EC3) ([3]; 10 μM): 145 ± 5 % GABA EC3
efficacy (% GABA EC3) ([4]; 100 nM): ns
efficacy (% GABA EC3) ([4]; 1 μM): ns
efficacy (% GABA EC3) ([4]; 10 μM): 145 ± 3 % GABA EC3
efficacy (% GABA EC3) ([7]; 100 nM): ns
efficacy (% GABA EC3) ([7]; 1 μM): ns
efficacy (% GABA EC3) ([7]; 10 μM): 142 ± 8 % GABA EC3
efficacy (% GABA EC3) ([8]; 100 nM): ns
efficacy (% GABA EC3) ([8]; 1 μM): ns
efficacy (% GABA EC3) ([8]; 10 μM): ns
efficacy (% GABA EC3) ([8]; 10 μM, listed as zolpidem): unable to modulate
efficacy (% GABA EC3) ([9]; 100 nM, α4β3γ2): ns
efficacy (% GABA EC3) ([9]; 1 μM, α4β3γ2): ns
efficacy (% GABA EC3) ([9]; 10 μM, α4β3γ2): ns
maximal effect on GABA-induced chloride flux (GABA EC3), % of control current ([9]; α4β3γ2, control current = 100%): did not significantly enhance
efficacy (% GABA EC3) ([10]; 100 nM): ns
efficacy (% GABA EC3) ([10]; 1 μM): ns
shift in affinity caused by γ2F77I [11]: approximately 300 fold
efficacy (% GABA EC3) ([12]; 10 μM, α6β3γ2): ns
maximal effect on GABA-induced chloride flux (GABA EC3), % of control current ([12]; α6β3γ2, control current = 100%): did not significantly enhance
